Test results from US8673966B2, “ALDH-2 inhibitors in the treatment of addiction” (Gilead Sciences, Inc., priority 2011, dated 2014).

Key:
Type in all cases: biochemical
hMAO-A = hMAO-A (Homo sapiens (Human), UniProt P21397); assay: MAO-A assay (luminogenic MAO substrate); details: microsome contained MAO-A, 160 uM substrate, 20 min pre-incubation; unit inferred
Protocol: (§1) MAO assays included luminogenic MAO substrate, reaction buffers, Luciferin Detection and the reconstitution buffer with esterase. Standard MAO reaction mixtures included microsome contained MAO-A (2 ug) or MAO-B (10 ug), 160 uM substrate for MAO-A or 16 uM substrate for MAO-B, MAO-A buffer (100 mM Hepes buffer, pH 7.5, 5% glycerol) or MAO-B buffer (100 mM Hepes, pH 7.5, 5% glycerol, 10% dimethyl sulfoxide) in a final volume of 30 ul. After 20 minutes of pre-incubation of the enzyme with compounds, the reaction was initiated by adding enzyme substrate and the reaction was allowed to proceed for 60 minutes. Reconstituted Luciferin Detection Reagent (30 ul) was then added is added to simultaneously stop the MAO reaction and convert the methyl ester derivative to luciferin and produce light. The amount of light produced is directly proportional to the activity of MAO. The mixtures were further incubated for 20 minutes and activity of the enzyme was determined using Perkin-Elmer Envision Reader.
(§2) Note: IC50 refers to the concentration of a compound that inhibits a reaction by 50%. In the case of competitive inhibition, IC50=2Ki when the substrate is present at the Km concentration, as per the relationship: Ki=IC50/[1+(substrate concentration/Km)].

hMAO-B = hMAO-B (Homo sapiens (Human), UniProt P27338); assay: MAO-B assay (luminogenic MAO substrate); details: microsome contained MAO-B, 16 uM substrate, 20 min pre-incubation; unit inferred
Chain of hMAO-B (P27338 whole entry): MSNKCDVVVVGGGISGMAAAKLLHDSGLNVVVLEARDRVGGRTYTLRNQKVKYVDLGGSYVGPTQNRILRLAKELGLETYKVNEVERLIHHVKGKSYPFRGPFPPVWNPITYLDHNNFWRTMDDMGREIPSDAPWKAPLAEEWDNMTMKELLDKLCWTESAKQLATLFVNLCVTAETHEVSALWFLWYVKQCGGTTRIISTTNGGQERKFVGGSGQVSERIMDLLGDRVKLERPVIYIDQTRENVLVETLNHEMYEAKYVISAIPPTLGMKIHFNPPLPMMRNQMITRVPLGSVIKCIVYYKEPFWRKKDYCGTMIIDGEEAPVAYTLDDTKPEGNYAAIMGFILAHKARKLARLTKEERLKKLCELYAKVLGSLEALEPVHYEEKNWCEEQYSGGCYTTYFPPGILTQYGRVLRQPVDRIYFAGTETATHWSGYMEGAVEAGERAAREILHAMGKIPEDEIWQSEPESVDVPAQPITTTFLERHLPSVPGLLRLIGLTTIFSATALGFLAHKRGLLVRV
Protocol: as §1, §2

recombinant human ALDH2 = recombinant human ALDH2 (Homo sapiens (Human), UniProt P05091); assay: ALDH2 assay (NADH formation); details: 10 nM recombinant human ALDH2, 150 uM formaldehyde, 60 min pre-incubation; read-out: IC50 hALDH2
Chain of recombinant human ALDH2 (P05091 18-517): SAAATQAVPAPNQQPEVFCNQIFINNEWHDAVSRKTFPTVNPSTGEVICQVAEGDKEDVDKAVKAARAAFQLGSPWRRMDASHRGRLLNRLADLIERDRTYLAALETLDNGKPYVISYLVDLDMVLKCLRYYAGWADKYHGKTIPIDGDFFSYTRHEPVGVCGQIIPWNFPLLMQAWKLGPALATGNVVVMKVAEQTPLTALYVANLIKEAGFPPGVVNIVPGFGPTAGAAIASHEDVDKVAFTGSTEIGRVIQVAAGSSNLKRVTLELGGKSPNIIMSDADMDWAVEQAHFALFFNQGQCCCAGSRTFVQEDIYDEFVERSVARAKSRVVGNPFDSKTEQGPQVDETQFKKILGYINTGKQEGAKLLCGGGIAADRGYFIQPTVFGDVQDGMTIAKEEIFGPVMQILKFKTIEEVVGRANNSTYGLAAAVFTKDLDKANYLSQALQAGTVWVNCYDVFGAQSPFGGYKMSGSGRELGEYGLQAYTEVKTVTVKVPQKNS
Protocol: Standard ALDH2 reaction mixtures contained 150 uM formaldehyde, 2.5 mM NAD^+, 10 mM MgCl2 and 10 nM recombinant human ALDH2 in 50 mM Hepes buffer, pH 7.4, 0.01% Tween 20 in a final volume of 50 ul using 384-well plates. After 60 min of pre-incubation of compound with ALDH2 and formaldehyde, the reaction was started by adding NAD+ and the reaction mixture was allowed to proceed for 90 minutes. Activity of the enzyme was determined by monitoring NADH formation using Perkin-Elmer Envision Reader with excitation and emission wavelengths set at 340 and 460 nm, respectively.
as §2

Chain of hMAO-A (P21397 whole entry): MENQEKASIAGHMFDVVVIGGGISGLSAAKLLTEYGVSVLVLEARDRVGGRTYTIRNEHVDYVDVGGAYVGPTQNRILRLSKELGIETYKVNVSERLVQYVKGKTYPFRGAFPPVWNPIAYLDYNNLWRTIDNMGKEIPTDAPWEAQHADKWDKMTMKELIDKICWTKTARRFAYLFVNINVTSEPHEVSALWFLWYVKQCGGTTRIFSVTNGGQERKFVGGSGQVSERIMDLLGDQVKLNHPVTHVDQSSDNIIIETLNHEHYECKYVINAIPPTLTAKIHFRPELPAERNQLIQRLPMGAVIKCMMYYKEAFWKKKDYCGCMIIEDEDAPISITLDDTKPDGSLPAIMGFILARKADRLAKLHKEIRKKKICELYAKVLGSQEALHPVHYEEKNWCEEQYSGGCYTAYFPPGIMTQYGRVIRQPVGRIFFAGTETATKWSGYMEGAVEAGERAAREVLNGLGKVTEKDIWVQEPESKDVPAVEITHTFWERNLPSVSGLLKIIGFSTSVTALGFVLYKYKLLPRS

SMILES	IC50 (hMAO-A)	IC50 (hMAO-B)	IC50 (recombinant human ALDH2)
CS(=O)(=O)Nc1ccc(-c2coc3cc(C#Cc4cc[nH]c(=O)c4)ccc3c2=O)cc1 [N-(4-(4-oxo-7-((2-oxo-1,2-dihydropyridin-4-yl)ethynyl)-4H-chromen-3-yl)phenyl)methanesulfonamide]	> 130 µM	> 130 µM	0.009 µM
CS(=O)(=O)Nc1ccc(-c2coc3cc(C#CC4CCOCC4)ccc3c2=O)cc1 [N-(4-(4-oxo-7-((tetrahydro-2H-pyran-4-yl)ethynyl)-4H-chromen-3-yl)phenyl)methanesulfonamide]	> 130 µM	> 130 µM	0.043 µM
CS(=O)(=O)Nc1ccc(-c2coc3cc(C#Cc4ccccc4)ccc3c2=O)cc1 [N-(4-(4-oxo-7-(phenylethynyl)-4H-chromen-3-yl)phenyl)methanesulfonamide]	> 13 µM	> 13 µM	0.329 µM
CS(=O)(=O)Nc1ccc(-c2coc3cc(C#CC4CCNCC4)ccc3c2=O)cc1 [N-(4-(4-oxo-7-(piperidin-4-ylethynyl)-4H-chromen-3-yl)phenyl)methanesulfonamide]	> 110 µM	> 130 µM	0.174 µM
CS(=O)(=O)Nc1ccc(-c2coc3cc(C#Cc4ccccn4)ccc3c2=O)cc1 [N-(4-(4-oxo-7-(pyridin-2-ylethynyl)-4H-chromen-3-yl)phenyl)methanesulfonamide]	> 130 µM	> 130 µM	0.09 µM
CS(=O)(=O)Nc1ccc(-c2coc3cc(C#Cc4cccnc4)ccc3c2=O)cc1 [N-(4-(4-oxo-7-(pyridin-3-ylethynyl)-4H-chromen-3-yl)phenyl)methanesulfonamide]	> 130 µM	> 130 µM	0.021 µM
CS(=O)(=O)Nc1ccc(-c2coc3cc(C#Cc4cncnc4)ccc3c2=O)cc1 [N-(4-(4-oxo-7-(pyrimidin-5-ylethynyl)-4H-chromen-3-yl)phenyl)methanesulfonamide]	> 130 µM	114 µM	0.057 µM
CC(C)(O)C#Cc1ccc2c(=O)c(-c3ccc(NS(C)(=O)=O)cc3)coc2c1 [N-(4-(7-(3-hydroxy-3-methylbut-1-ynyl)-4-oxo-4H-chromen-3-yl)phenyl)methanesulfonamide]	> 91 µM	> 91 µM	2.18 µM
COCC#Cc1ccc2c(=O)c(-c3ccc(NS(=O)(=O)C4CC4)cc3)coc2c1 [N-(4-(7-(3-methoxyprop-1-ynyl)-4-oxo-4H-chromen-3-yl)phenyl)cyclopropanesulfonamide]	> 130 µM	> 130 µM	0.096 µM
COCC#Cc1ccc2c(=O)c(-c3ccc(NS(C)(=O)=O)cc3)coc2c1 [N-(4-(7-(3-methoxyprop-1-ynyl)-4-oxo-4H-chromen-3-yl)phenyl)methanesulfonamide]	> 130 µM	> 130 µM	0.047 µM
Cc1ncc(C#Cc2ccc3c(=O)c(-c4ccc(NS(C)(=O)=O)cc4)coc3c2)n1C [N-(4-(7-((1,2-dimethyl-1H-imidazol-5-yl)ethynyl)-4-oxo-4H-chromen-3-yl)phenyl)methanesulfonamide]	> 130 µM	> 130 µM	0.015 µM
CC1(C(=O)N2CC(C#Cc3ccc4c(=O)c(-c5ccc(NS(C)(=O)=O)cc5)coc4c3)C2)CC1 [N-(4-(7-((1-(1-methylcyclopropanecarbonyl)-azetidin-3-yl)ethynyl)-4-oxo-4H-chromen-3-yl)phenyl)methanesulfonamide]	> 130 µM	> 130 µM	0.006 µM
CN1CCC(C(=O)N2CC(C#Cc3ccc4c(=O)c(-c5ccc(NS(C)(=O)=O)cc5)coc4c3)C2)CC1 [N-(4-(7-((1-(1-methylpiperidine-4-carbonyl)azetidin-3-yl)ethynyl)-4-oxo-4H-chromen-3-yl)phenyl)methanesulfonamide]	> 130 µM	> 130 µM	0.035 µM
